Here are results for 24 compounds from patent US11712438B2, “Phenyl derivatives as PGE2 receptor modulators” (IDORSIA PHARMACEUTICALS LTD, priority 2017, dated 2023).

Test in all cases: cell-based
For assay [1], the target named is PTGER2 (EP2) (Homo sapiens, UniProt P43116).
Assay [2] deals with EP2 (Homo sapiens, UniProt P43116).
Assay [3] has as its target EP4 (Homo sapiens, UniProt P35408).
The target in assay [4] is PTRGER4 (EP4) (Homo sapiens, UniProt P35408).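 Note: assay plate preincubated 15 min at 37 °C, after which PGE2 was added at 20 nM final and incubation continued 120 min at 37 °C.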
Chain of PTRGER4 (EP4) (P35408 whole entry): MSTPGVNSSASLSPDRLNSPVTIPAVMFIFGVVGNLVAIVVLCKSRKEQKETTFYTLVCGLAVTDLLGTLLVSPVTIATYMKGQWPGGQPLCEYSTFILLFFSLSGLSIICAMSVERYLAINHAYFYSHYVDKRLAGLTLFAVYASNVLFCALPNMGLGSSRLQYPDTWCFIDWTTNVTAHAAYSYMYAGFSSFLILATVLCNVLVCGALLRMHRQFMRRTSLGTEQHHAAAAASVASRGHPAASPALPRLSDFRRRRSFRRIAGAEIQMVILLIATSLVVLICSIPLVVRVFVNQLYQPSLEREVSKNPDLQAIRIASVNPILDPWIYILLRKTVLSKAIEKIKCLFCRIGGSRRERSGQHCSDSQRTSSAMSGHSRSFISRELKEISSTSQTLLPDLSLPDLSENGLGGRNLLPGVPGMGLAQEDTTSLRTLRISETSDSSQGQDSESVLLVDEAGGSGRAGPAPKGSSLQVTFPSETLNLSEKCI

Chain of PTGER2 (EP2) (P43116 whole entry): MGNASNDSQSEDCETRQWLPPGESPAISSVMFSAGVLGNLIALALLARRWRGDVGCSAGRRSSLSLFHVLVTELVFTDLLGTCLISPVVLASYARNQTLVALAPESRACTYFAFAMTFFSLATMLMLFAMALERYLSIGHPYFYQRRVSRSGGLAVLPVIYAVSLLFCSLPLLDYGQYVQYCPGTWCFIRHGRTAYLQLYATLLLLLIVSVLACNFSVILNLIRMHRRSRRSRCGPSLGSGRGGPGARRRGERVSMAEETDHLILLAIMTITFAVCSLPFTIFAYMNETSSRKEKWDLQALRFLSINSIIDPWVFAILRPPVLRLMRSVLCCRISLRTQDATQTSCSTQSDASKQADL
Chain of EP2 (P43116 whole entry): as above
Chain of EP4 (P35408 whole entry): as the sequence (P35408 whole entry) above

Take `CCOc1cc(-c2cc(NCCc3c(OC)cc(Br)cc3OC)ncn2)sc1-c1noc(=O)[nH]1` [Example 88, 3-(5-{6-[2-(4-Bromo-2,6-dimethoxy-phenyl)-ethylamino]-pyrimidin-4-yl}-3-ethoxy-thiophen-2yl)-[1,2,4]oxadiazol-5(4H)-one]: the IC50 – broadly, the concentration that gives 50% inhibition – in assay [1] came to 9 nM; in assay [2], 31 nM; in assay [3], 6 nM; in assay [4], 2 nM.

Turning to `CCOc1cc(-c2cc(NCCc3ccc(Br)cc3)ncn2)ccc1C(=O)O` [Example 11, 4-{6-[2-(4-Bromo-phenyl)-ethylamino]-pyrimidin-4-yl}-2-ethoxy-benzoic acid], the IC50 in assay [1] is 358 nM; in assay [2], 311 nM; in assay [3], 440 nM; in assay [4], 1090 nM.

As for `CNc1cc(-c2cc(NCCc3c(F)cc(Br)cc3F)ncn2)ccc1C(N)=O` [Example 216, 4-{6-[2-(4-Bromo-2,6-difluoro-phenyl)-ethylamino]-pyrimidin-4-yl}-2-methylamino-benzamide], the IC50 in assay [1] was 21 nM; in assay [2] it was 23 nM; in assay [3], 67 nM; in assay [4], 17 nM.

Regarding `CCOc1cc(-c2cc(NCCc3ccc(Br)cc3)ncn2)sc1-c1noc(=O)[nH]1` [Example 130, 3-(5-{6-[2-(4-Bromo-phenyl)-ethylamino]-pyrimidin-4-yl}-3-ethoxy-thiophen-2-yl)-[1,2,4]oxadiazol-5(4H)-one], the IC50 in assay [1] came to 22 nM; in assay [2] it was 63 nM; in assay [3], 24 nM; in assay [4] it was 4 nM.

Consider `CCOc1cc(-c2cc(NCCc3c(F)cc(Br)cc3F)ncn2)ccc1CC(=O)O` [Example 49, (4-{6-[2-(4-Bromo-2,6-difluoro-phenyl)-ethylamino]-pyrimidin-4-yl}-2-ethoxy-phenyl)-acetic acid], for which the IC50 was determined as 139 nM in assay [1], 246 nM in assay [2], 159 nM in assay [3] and 143 nM in assay [4].

Take `COc1cc(C(F)(F)F)c(Cl)cc1CCNc1cc(-c2ccc(C(=O)O)c(SC)c2)ncn1` [Example 196, 4-{6-[2-(5-Chloro-2-methoxy-4-trifluoromethyl-phenyl)-ethylamino]-pyrimidin-4-yl}-2-methylsulfanyl-benzoic acid]: the IC50 in assay [1] was 235 nM; in assay [2] it was 400 nM; in assay [3], 107 nM; in assay [4], 113 nM.

Consider `CCc1cc(-c2cc(NCCc3c(F)cc(Br)cc3F)ncn2)ccc1C(=O)OC` [Example 245, 4-{6-[2-(4-Bromo-2,6-difluoro-phenyl)-ethylamino]-pyrimidin-4-yl}-2-ethyl-benzoic acid methyl ester], for which the IC50 amounted to 392 nM in assay [1], 4630 nM in assay [2], 6720 nM in assay [3] and 307 nM in assay [4].

On to `CCOc1cc(-c2cc(NCCc3c(F)ccc(F)c3Cl)ncn2)sc1-c1noc(=O)[nH]1` [Example 100, 3-(5-{6-[2-(2-Chloro-3,6-difluoro-phenyl)-ethylamino]-pyrimidin-4-yl}-3-ethoxy-thiophen-2yl)-[1,2,4]oxadiazol-5(4H)-one], for which the IC50 in assay [1] amounted to 17 nM; in assay [2], 50 nM; in assay [3], 59 nM; in assay [4] it was 27 nM.

With `CCOc1cc(-c2cc(NCCc3ccc(C)c(C)c3)ncn2)sc1C(=O)O` [Example 68, 5-{6-[2-(3,4-Dimethyl-phenyl)-ethylamino]-pyrimidin-4-yl}-3-ethoxy-thiophene-2-carboxylic acid], the 50% inhibitory concentration (IC50) in assay [1] was found to be 145 nM; in assay [2], 165 nM; in assay [3], 25 nM; in assay [4] it was 33 nM.

As for `O=c1[nH]c(-c2sc(-c3cc(NCCc4c(F)cc(Br)cc4F)ncn3)cc2C(F)(F)F)no1` [Example 133, 3-(5-{6-[2-(4-Bromo-2,6-difluoro-phenyl)-ethylamino]-pyrimidin-4-yl}-3-trifluoromethyl-thiophen-2-yl)-[1,2,4]oxadiazol-5(4H)-one], the IC50 was determined as 13 nM in assay [1], 92 nM in assay [2], 44 nM in assay [3] and 13 nM in assay [4].

For the compound `CCc1nc(-c2cc(NCCc3c(F)cc(Br)cc3F)ncn2)sc1-c1noc(=O)[nH]1` [Example 151, 3-(2-{6-[2-(4-Bromo-2,6-difluoro-phenyl)-ethylamino]-pyrimidin-4-yl}-4-ethyl-thiazol-5-yl)-[1,2,4]oxadiazol-5(4H)-one], the IC50 stood at 69 nM in assay [1], 43 nM in assay [2], 29 nM in assay [3] and 3 nM in assay [4].

Take `CCOc1cc(-c2cc(NCCc3c(F)cc(Br)cc3F)ncn2)sc1/C=C/C(=O)O` [Example 47, (E)-3-(5-{6-[2-(4-Bromo-2,6-difluoro-phenyl)-ethylamino]-pyrimidin-4-yl}-3-ethoxy-thiophen-2yl)-acrylic acid]: the IC50 in assay [1] is 50 nM; in assay [2], 129 nM; in assay [3], 85 nM; in assay [4], 11 nM.

With `CCOc1cc(-c2cc(NCCc3c(F)cc(Br)cc3F)ncn2)sc1C(N)=O` [Example 279, 5-{6-[2-(4-Bromo-2,6-difluoro-phenyl)-ethylamino]-pyrimidin-4-yl}-3-ethoxy-thiophene-2-carboxylic acid amide], the IC50 in assay [1] came out at 46 nM; in assay [2], 72 nM; in assay [3], 12 nM; in assay [4], 5 nM.

As to `CCOc1cc(-c2cc(NCCc3cc(C)c(C)cc3OC)ncn2)ccc1C(=O)O` [Example 7, 2-Ethoxy-4-{6-[2-(2-methoxy-4,5-dimethyl-phenyl)-ethylamino]-pyrimidin-4-yl}-benzoic acid], the IC50 in assay [1] came to 441 nM; in assay [2] it was 205 nM; in assay [3], 140 nM; in assay [4], 759 nM.

In the case of `CSc1cc(-c2cc(NCCc3ccc(C)c(C)c3)ncn2)ccc1C(=O)O` [Example 18, 4-{6-[2-(3,4-Dimethyl-phenyl)-ethylamino]-pyrimidin-4-yl}-2-methylsulfanyl-benzoic acid], the half-maximal inhibitory concentration (IC50) in assay [1] worked out at 481 nM; in assay [2] it was 130 nM; in assay [3], 173 nM; in assay [4], 168 nM.

Consider `CCOc1cc(-c2cc(NCCc3c(C)cc(C)cc3OC)ncn2)sc1C(=O)O` [Example 203, 3-Ethoxy-5-{6-[2-(2-methoxy-4,6-dimethyl-phenyl)-ethylamino]-pyrimidin-4-yl}-thiophene-2-carboxylic acid], for which the IC50 in assay [1] came to 81 nM; in assay [2], 27 nM; in assay [3] it was 11 nM; in assay [4], 92 nM.

For the compound `CCOc1cc(-c2cc(NCCc3c(F)cc(Br)cc3F)ncn2)[nH]c1C(=O)O` [Example 268, 5-{6-[2-(4-Bromo-2,6-difluoro-phenyl)-ethylamino]-pyrimidin-4-yl}-3-ethoxy-1H-pyrrole-2-carboxylic acid], the half-maximal inhibitory concentration (IC50) was 19 nM in assay [1], 21 nM in assay [2], 225 nM in assay [3] and 294 nM in assay [4].

For the compound `Cc1cc(-c2cc(NCCc3c(F)cc(Br)cc3F)ncn2)sc1C(=O)O` [Example 28, 5-{6-[2-(4-Bromo-2,6-difluoro-phenyl)-ethylamino]-pyrimidin-4-yl}-3-methyl-thiophene-2-carboxylic acid], the IC50 worked out at 49 nM in assay [1], 41 nM in assay [2], 41 nM in assay [3] and 80 nM in assay [4].

Regarding `CCOc1cc(-c2cc(NCCc3c(F)cc(Br)cc3F)ncn2)sc1Cc1noc(=O)[nH]1` [Example 138, 3-(5-{6-[2-(4-Bromo-2,6-difluoro-phenyl)-ethylamino]-pyrimidin-4-yl}-3-ethoxy-thiophen-2-ylmethyl)-[1,2,4]oxadiazol-5(4H)-one], the IC50 in assay [1] is 34 nM; in assay [2], 123 nM; in assay [3], 247 nM; in assay [4], 130 nM.

For the compound `CCOc1cc(-c2cc(NCCc3ccc(OC)c(O)c3)ncn2)sc1-c1noc(=O)[nH]1` [Example 117, 3-(3-Ethoxy-5-{6-[2-(3-hydroxy-4-methoxy-phenyl)-ethylamino]-pyrimidin-4-yl}-thiophen-2yl)-[1,2,4]oxadiazol-5(4H)-one], the IC50 in assay [1] is 692 nM; in assay [2], 244 nM; in assay [3] it was 26 nM; in assay [4], 16 nM.

As for `COc1cc(C)c(C)cc1CCNc1cc(-c2ccc(C(=O)O)c(SC)c2)ncn1` [Example 3, 4-{6-[2-(2-Methoxy-4,5-dimethyl-phenyl)-ethylamino]-pyrimidin-4-yl}-2-methylsulfanyl-benzoic acid], the IC50 in assay [1] is 86 nM; in assay [2] it was 45 nM; in assay [3], 46 nM; in assay [4], 420 nM.

As for `Cc1ccc(CCNc2cc(-c3cc(C(F)(F)F)c(C(=O)O)s3)ncn2)c(C)c1` [Example 64, 5-{6-[2-(2,4-Dimethyl-phenyl)-ethylamino]-pyrimidin-4-yl}-3-trifluoromethyl-thiophene-2-carboxylic acid], the IC50 in assay [1] is 316 nM; in assay [2], 244 nM; in assay [3], 38 nM; in assay [4], 205 nM.

For the compound `CCOc1cc(-c2cc(NCCc3c(F)cc(Br)cc3F)ncn2)sc1-c1nnc(O)o1` [Example 152, 5-(5-{6-[2-(4-bromo-2,6-difluoro-phenyl)-ethylamino]-pyrimidin-4-yl}-3-ethoxy-thiophen-2-yl)-[1,3,4]-oxadiazol-2-ol], the IC50 in assay [1] was 12 nM; in assay [2], 9 nM; in assay [3] it was 30 nM; in assay [4], 5 nM.

On to `CCc1cc(-c2cc(NCCc3c(F)cccc3F)ncn2)sc1C(=O)O` [Example 53, 5-{6-[2-(2,6-Difluoro-phenyl)-ethylamino]-pyrimidin-4-yl}-3-ethyl-thiophene-2-carboxylic acid], for which the IC50 in assay [1] was 437 nM; in assay [2], 63 nM; in assay [3], 221 nM; in assay [4] it was 472 nM.
